Values quoted from earlier work in US4215038A, “Peptides which inhibit gonadal function” (The Salk Institute for Biological Studies, priority 1978, dated 1980).
Non-standard residues stand in square brackets, D forms with d. pGlu = O=C1CC[C@@H](C(=O)O)N1

Test system: release of gonadotropins
Conditions: compared with the 6-Gly peptide

[pGlu]WSY[dA]LRPG-NH2
potency as an inhibitor for the release of gonadotropins relative to the same peptide with Gly in the 6-position: 3 times
